Laboratory results from PMC11542736 (Cell reports. Physical science, 2024).

Target: TrpR^WT (Escherichia coli, UniProt P0A881)
Assay: Ptrp-GFP reporter, flow cytometry
Type: cell-based
Conditions: 1 mM ligand, E. coli Nissle 1917 trpR knockout, 37 °C, 8 h; derepression

O=C(O)Cc1c[nH]c2ccccc12 [IAA, indole-3-acetic acid]
Ptrp-GFP reporter, flow cytometry: IPA, IAA, and IAld
